We go through three compounds from US20070003509A1, “Skin treatment composition” (priority 2005, published 2007).

For data set [1], the system named is pro-collagen I in the papillary dermis. Kind of data set: Patch-test protocol, immunohistochemistry of pro-collagen I in photoaged skin in vivo. The note with it: for Pro-collagen I expression in the papillary dermis, Mean (degree of immunostaining): scale 0-4, N=5. Also on record: species or system human. The text has this: (§1) It was done by identification of Procollagen-I and Fibrillin upregulation and matrix metalloprotease-1 (MMP-1) down-regulation in Skin In Vivo. Experiments were done following topical Retinoic Acid (RA) treatment for comparative purposes and analysis of the effects of salicyloyl-phytosphingosine and phytosphingosine compared with retinoic acid with respect to the expression of dermal markers in vivo. See: Watson R E B, Craven N M, Kang S, Jones C J P, Kielty C M, Griffiths C E M. A short term screening protocol, using fibrillin-1 as a […] molecule for photoageing repair agents. J Invest Dermatol, 116: 672-678, 2001, for published methodology.
(§2) Five healthy, but clinically photoaged volunteers, were recruited (age range 54-71 years). Test substances were applied separately under standard 6 mm diameter Finn chambers to the extensor aspect of the forearm: these were vehicle base (15 μl/chamber), 0.2% PS-SLC (15 μl/chamber), 0.05% PS-SLC (15 μl/chamber), 0.2% phytosphingosine (15 μl/chamber) and 0.025% all-tans RA (Retin-A® cream, Janssen-Cilag Ltd., 15 μl/chamber). Formulations were applied to clean skin on days 1 and 4 of the assay. All-trans RA was applied to an untreated site on day 4. On day 8, Finn chambers were removed and 3 mm punch biopsies were obtained under 1% lignocaine anaesthesia from each of the test site. Biopsies were embedded in OCT compound (Tissue-Tek®, Miles, Ind., USA) and snap frozen in liquid nitrogen. Biopsy sites were sutured with 1×4/o ethilon and subjects instructed to return between 7-10 days for suture removal. Frozen sections were […] at a thickness of 10 μm (OTF cryostat, Bright Instruments Ltd.) and mounted onto gelatin-coated slides prior to histological analysis. A number of extracellular matrix (ECM) molecules known to be altered in photoaged skin were assayed by immunohistochemistry to detail the potential effects of the novel formulations. The primary marker of outcome was the distribution of fibrillin-rich microfibrils proximal to the dermal-epidermal junction (DEJ). Also assessed was the distribution of procollagen-1 within the dermis.
(§3) Matrix metalloprotease-1 (MMP-1) levels were also assessed. Whilst the fibrillin and procollagen-1 should increase for an antiaging active levels of MMP-1 should decrease for an antiaging active, i.e., increased synthesis of dermal structural proteins together with reduced levels of the proteases that degrade them. For each analysis, the marker was identified in each of three sections (i.e., 3 sections/treatment/volunteer). Sections were optimally fixed. Routinely, following hydration in tris-buffered saline (TBS; 100 mM Tris, 150 mM NaCl), sections were solublised by addition of 0.5% Triton-X100 (10 minutes). Following washing, endogenous peroxidase activity was abolished by incubation with an excess of hydrogen peroxide in methanol (30 minutes). Sections were blocked prior to application of primary antibody (overnight incubation @4° C.). Negative controls were concurrently incubated with either block alone or control serum. Following incubation, sections were stringently washed with TBS prior to application of an appropriate biotinylated secondary antibody. This was further conjugated to the enzyme horseradish peroxidase using a commercially available kit following the manufacturers instructions (ABC Elite System, Vector Laboratory, Peterborough UK). Antibody was localised using Vector SG® as chromogen (10 minute incubation)—washing in TBS quenched this reaction. Sections were counterstained using Nuclear Fast Red and finally dehydrated through serial alcohols, cleared and permanently mounted.
(§4) Sections were randomised, blinded and examined on a Nikon OPTIPHOT microscope (Tokyo, Japan). For assessment of ECM and cornified envelope components, the degree of immunostaining was assessed on a 5 point semi-quantitative scale where 0=no staining and 4=maximal staining. Four sections (including control) were examined per subject per site. […]

In data set [2] the test system is Matrix metalloprotease-1 (MMP-1). The data set is described as follows: Patch-test protocol, immunohistochemistry of MMP-1 in photoaged skin in vivo. Details: species or system human. The note with it: for MMP-1 expression, Mean (MMP-1 IHC): N=5.
Description: as §1, §2, §3, §4

For data set [3], the system named is fibrillin-rich microfibrils proximal to the dermal-epidermal junction (DEJ). Kind of data set: Patch-test protocol, immunohistochemistry of fibrillin-rich microfibrils in photoaged skin in vivo. The conditions noted are these: for Fibrillin expression proximal to the DEJ, Mean (degree of immunostaining): scale 0-4. Details: species or system human.
Description: as §1, §2, §3, §4

The subject of a further data set is cellulite (thigh). The data set is described as follows: Clinical trial of anticellulite activity by topical application. The class given is in vivo, human. The note with it: 0.2% formulation of Example 2, two times a day for 2 months, six female subjects. The source says:
Six female subjects were selected for a clinical trial of anticellulite activity of salicyloyl-phytoshingosine by topical application.
The scale ranged from 0 to 4, being 0=No cellulite; 1=Small bumps or depressions; 2=Striations and bumps; 3=Pronounced lumpiness of the skin and striations; 4=All of the above plus hard sub-surface nodules. All tested volunteers had cellulite with grades 1 and 2. The subjects were divided in 2 groups of 3 individuals
Group 1 was instructed to apply a formulation described in Example 2 containing 0.2% salicloyl-phytosphingosine on the right thigh and the vehicle formulation without salicyloyl-phytoshingosine in the left thigh Group 2 was instructed to apply the formulations vice versa. The subjects were taught to carry out the application two times a day, at morning and at night for a period of 2 months. Afterwards the cellulite condition was evaluated by comparison of the thigh diameter, the clinical degrading and the subjective improvement.

The nature of data set [4]: Patch-test protocol, erythema at the site of application. The class given is in vivo, human. The conditions noted are these: occluded patch test on forearm, photoaged volunteers. As to the method:
as §2, with “The primary marker of outcome was the distribution of fibrillin-rich microfibrils proximal to the dermal-epidermal junction (DEJ).” left out

The mark [5] stands for this setting: 0.2% topical occluded, vs vehicle.
The mark [6] stands for this setting: 0.2% topical under Finn chamber, applied days 1 and 4, biopsy day 8.
[7] abbreviates: topical occluded application, concentration not given.
Setting [8] is: 0.2% topical under Finn chamber, applied days 1 and 4, biopsy day 8, N=5 photoaged volunteers.
[9] abbreviates: 0.05% topical under Finn chamber, applied days 1 and 4, biopsy day 8.
Setting [10] is: 0.025% (Retin-A cream), applied day 4, biopsy day 8.

Marks after values point to notes of the source that are not given here.

With `CCCCCCCCCCCCCC[C@@H](O)[C@@H](O)[C@@H](N)CO` [PS, phytosphingosine], the “pCI content in the papillary dermis (in words)” value in data set [1] (setting [5]) is listed as “significantly increased”. For the same compound, the “Pro-collagen I expression in the papillary dermis, Mean (degree of immunostaining)” value (“Pro-collagen I expression” below) in data set [1] (setting [6]) is 2.5556**. For the same compound, in data set [1] (setting [7]), the “Effects on procollagen I in the papillary dermis (study summary, in words)” value was “beneficial effects”. For the same compound, the “MMP-1 levels (in words)” value in data set [2] (setting [5]) was “no effect”. Besides, in data set [2] (setting [6]), the “MMP-1 expression, Mean (MMP-1 IHC)” value was determined as 33.23. The “Fibrillin-1 deposition proximal to the DEJ (in words)” value in data set [3] (setting [5]) is “significant induction of fibrillin expression”. In addition, the “Fibrillin expression proximal to the DEJ, Mean (degree of immunostaining)” value (shortened to “Fibrillin expression proximal to the DEJ”) in data set [3] (setting [8]) is 2.0000**. Also, the “Fibrillin-rich microfibrillar network proximal to the DEJ of photoaged skin (study summary, in words)” value in data set [3] (setting [7]) was “restores”.
`CCCCCCCCCCCCCC[C@@H](O)[C@@H](O)[C@H](CO)NC(=O)c1ccccc1O` [PS-SLC, salicyloyl-phytosphingosine]: the “Pro-collagen I expression” value in data set [1] (setting [9]) is 2.2472; in data set [1] (setting [6]), 2.7790*. Moreover, the “MMP-1 expression, Mean (MMP-1 IHC)” value in data set [2] (setting [9]) is reported as 18.40*; in data set [2] (setting [6]) it was 22.72*. The “Fibrillin expression proximal to the DEJ” value in data set [3] (0.05% topical under Finn chamber, applied days 1 and 4, biopsy day 8, N=5) is given as 1.7778**; in data set [3] (setting [8]), 2.267*. Also, the “Clinical grading (cellulite) reduction in comparison with the vehicle treated thigh” value in the data set with cellulite (thigh) was 27%. For the same compound, the “Subjective improvement increase in comparison with the vehicle treated thigh” value in the data set with cellulite (thigh) is on record as 34%. Further, the “Thigh diameter reduction in comparison with the vehicle treated thigh” value in the data set with cellulite (thigh) came to 4%.
`CC1=C(/C=C/C(C)=C/C=C/C(C)=C/C(=O)O)C(C)(C)CCC1` [RA, retinoic acid]: in data set [1] (setting [10]), the “Pro-collagen I expression” value came out at 2.2667. The “Erythema at the site of application” value in data set [4] is recorded as “marked erythema”. For the same compound, the “MMP-1 expression, Mean (MMP-1 IHC)” value in data set [2] (setting [10]) came out at 36.82. Also, in data set [2] (0.025% all-trans RA, 4 day occluded application), the “Expression of MMP-1 (in words)” value is “no effect”. Further, in data set [3] (0.025% (Retin-A cream) under Finn chamber, applied day 4, biopsy day 8, N=5), the “Fibrillin expression proximal to the DEJ” value is listed as 2.8625**.
